Reference: patent US20250129088A1, “CEREBLON E3 UBIQUITIN LIGASE INHIBITOR” (Gan & Lee Pharmaceuticals Co., Ltd., priority 2022, published 2025)

What was measured:
Type in all cases: cell-based
HeLa cells = assay: HeLa cell proliferation inhibition, CCK-8; conditions: Homo sapiens, 72 h, 3 days
Description: The complete medium required for HeLa cells is DMEM high glucose (Gibco, Product number: 11995-065) basal medium containing 10% fetal bovine serum. HeLa cells were seeded in a 96-well plate at a density of 4,000 cells/well, and the next day, different concentrations of the compound of the present invention and the positive control sample Ceritinib (source: Bide Pharmaceuticals) were prepared to treat the cells. The cells were incubated at 37° C., 5% CO2 cell culture incubator for 3 days. Cell viability was detected using the CCK-8 kit (Beyotime, Product number: C0040) according to the manufacturer's instructions. According to the inhibition rate, GraphPad Prism software was used to calculate the IC50 value of each compound for 3 days, and the results are shown in Table 2.

A549 cells = assay: A549 cell proliferation inhibition, CCK-8; conditions: Homo sapiens, 96 h, A549, 4 days
Description: The complete medium required for A549 cells is F-12K (ATCC, Product number: 30-2004) basal medium containing 10% fetal bovine serum. A549 cells were seeded in a 96-well plate at a density of 2,800 cells/well, and the next day, different concentrations of the compound of the present invention and a positive control sample Ceritinib (source: Bide Pharmaceuticals) were prepared to treat the cells. The cells were incubated at 37° C., 5% CO2 cell incubator for 4 days. Cell viability was detected using the CCK-8 kit (Beyotime, Product number: C0040) according to the manufacturer's instructions. According to the inhibition rate, the GraphPad Prism software was used to calculate the IC50 value of each compound for 4 days, and the results are shown in Table 3.

MCF-7 cells = assay: MCF-7 cell proliferation inhibition, CCK-8; conditions: Homo sapiens, MCF7, 216 h, MCF-7, 9 days
Description: The complete medium required for MCF-7 cells is DMEM (gibco, Product number: 11995-065) basal medium containing 10% fetal bovine serum. MCF-7 cells were seeded in a 96-well plate at a density of 800/well, and different concentrations of the compound of the present invention and the positive control sample ARV-471 (source: Enochem) were prepared to treat the cells. The cells were incubated at 37° C., 5% 9 days in a CO2 cell incubator. Cell viability was detected using the CCK-8 kit (Beyotime, Product number: C0040) according to the manufacturer's instructions. According to the inhibition rate, GraphPadPrism software was used to calculate the IC50 value of each compound for 9 days, and the results are shown in Table 18.

T-47D cells = assay: T-47D cell proliferation inhibition, CCK-8; conditions: Homo sapiens, T47D, 144 h, 6 days
Description: The complete medium required for T-47D cells is 1640 (ATCC, Product number: A10491-01) basal medium containing 10% fetal bovine serum. T-47D cells were seeded in a 96-well plate at a density of 3,000/well, and different concentrations of the compound of the present invention and the positive control sample ARV-471 (source: Innochem) were prepared to treat the cells. The cells were incubated at 37° C., 5% for 6 days in a CO2 cell incubator. Cell viability was detected using the CCK-8 kit (Beyotime, Product number: C0040) according to the manufacturer's instructions. According to the inhibition rate, the GraphPadPrism software was used to calculate the IC50 value of each compound for 6 days, and the results are shown in Table 17.

Compound	IC50 (HeLa cells) [µM]	IC50 (A549 cells) [µM]	IC50 (MCF-7 cells) [nM]	IC50 (T-47D cells) [nM]
Cc1cc(Nc2ncc(Cl)c(Nc3ccccc3S(=O)(=O)C(C)C)n2)c(OC(C)C)cc1C1CCN(CCOCCC(=O)N2CC3(CCc4cc5c(cc4O3)CN(C3CCC(=O)NC3=O)C5=O)C2)CC1 (centres unmarked) [PROTAC 27, 3-(1-(3-(2-(4-(4-((5-chloro-4-((2-(isopropylsulfonyl)phenyl)amino)pyrimidin-2-yl)amino)-5-isopropoxy-2-methylphenyl)piperidin-1-yl)ethoxy)propionyl)-6′-oxo-3′,4′,6′,8′-tetrahydro-7′H-spiro[azetidine-3,2′-pyrano[2,3-f]isoindole]-7′-yl)piperidine-2,6-dione]	4.27	11.4		
Cc1cc(Nc2ncc(Cl)c(Nc3ccccc3S(=O)(=O)C(C)C)n2)c(OC(C)C)cc1C1CCN(CCOCCC(=O)N2CC3(CCc4cc5c(cc4O3)C(=O)N(C3CCC(=O)NC3=O)C5)C2)CC1 (centres unmarked) [PROTAC 28, 3-(1-(3-(2-(4-(4-((5-chloro-4-((2-(isopropylsulfonyl)phenyl)amino)pyrimidin-2-yl)amino)-5-isopropoxy-2-methylphenyl)piperidin-1-yl)ethoxy)propionyl)-8′-oxo-3′,4′,6′,8′-tetrahydro-7′H-spiro[azetidine-3,2′-pyrano[2,3-f]isoindole]-7′-yl)piperidine-2,6-dione]	4.36	6.81		
Cc1cc(Nc2ncc(Cl)c(Nc3ccccc3S(=O)(=O)C(C)C)n2)c(OC(C)C)cc1C1CCN(CCOCCC(=O)N2CCC3(CCc4cc5c(cc4O3)C(=O)N(C3CCC(=O)NC3=O)C5=O)CC2)CC1 (centres unmarked) [PROTAC 29, 1-(3-(2-(4-(4-((5-chloro-4-((2-(isopropylsulfonyl)phenyl)amino)pyrimidin-2-yl)amino)-5-isopropoxy-2-methylphenyl)piperidin-1-yl)ethoxy)propionyl)-7′-(2,6-dioxopiperidin-3-yl)-3′,4′-dihydro-6′H-spiro[piperidine-4,2′-pyrano[2,3-f]isoindole]-6′,8′(7′H)-dione]	5.41	4.34		
Cc1cc(Nc2ncc(Cl)c(Nc3ccccc3S(=O)(=O)C(C)C)n2)c(OC(C)C)cc1C1CCN(CCOCCC(=O)N2CCC3(CC2)COc2cc4c(cc2C3)C(=O)N(C2CCC(=O)NC2=O)C4=O)CC1 (centres unmarked) [PROTAC 30, 1-(3-(2-(4-(4-((5-chloro-4-((2-(isopropylsulfonyl)phenyl)amino)pyrimidin-2-yl)amino)-5-isopropoxy-2-methylphenyl)piperidin-1-yl)ethoxy)propionyl)-7′-(2,6-dioxopiperidin-3-yl)-2′H-spiro[piperidine-4,3′-pyrano[2,3-f]isoindole]-6′,8′(4′H,7′H)-dione]	3.09	4.38		
Cc1cc(Nc2ncc(Cl)c(Nc3ccccc3S(=O)(=O)C(C)C)n2)c(OC(C)C)cc1C1CCN(CCOCCC(=O)N2CCC3(CC2)COc2cc4c(cc23)C(=O)N(C2CCC(=O)NC2=O)C4=O)CC1 (centres unmarked) [PROTAC 31, 1′-(3-(2-(4-(4-((5-chloro-4-((2-(isopropylsulfonyl)phenyl)amino)pyrimidin-2-yl)amino)-5-isopropoxy-2-methylphenyl)piperidin-1-yl)ethoxy)propionyl)-6-(2,6-dioxopiperidin-3-yl)-6-hydrogen-2H,5H-spiro[furo[2,3-f]isoindole-3,4′-piperidine]-5,7-dione]	4.65	10.2		
O=C1CCC(N2C(=O)c3cc4c(cc3C2=O)C2(CCN(C3CCC5(CC3)CCN(c3ccc([C@@H]6c7ccc(O)cc7CC[C@@H]6c6ccccc6)cc3)CC5)CC2)CO4)C(=O)N1 (stereo partly drawn) [PROTAC 54, 6-(2,6-dioxopiperidin-3-yl)-1′-(3-(4-((1R,2S)-6-hydroxy-2-phenyl-1,2,3,4-tetralin-1-yl)phenyl)-3-azaspiro[5.5]undec-9-yl)-6-hydrogen-2H,5H-spiro[furo[2,3-f]isoindole-3,4′-piperidine]-5,7-dione]			170	68
O=C1CCC(N2Cc3cc4c(cc3C2=O)CCC2(CN(C3CC5(CCN(c6ccc([C@@H]7c8ccc(O)cc8CC[C@@H]7c7ccccc7)cc6)CC5)C3)C2)O4)C(=O)N1 (stereo partly drawn) [PROTAC 56, 3-(1-(7-(4-((1R,2S)-6-hydroxy-2-phenyl-1,2,3,4-tetrahydronaphthalen-1-yl)phenyl)-7-azaspiro[3.5]non-2-yl)-6′-oxo-3′,4′,6′,8′-tetrahydro-7′H-spiro[azetidine-3,2′-pyrano[2,3-f]isoindol]-7′-yl)piperidine-2,6-dione]			70	1.6
O=C1CCC(N2Cc3cc4c(cc3C2=O)CCC2(CCN(C3CC5(CCN(c6ccc([C@@H]7c8ccc(O)cc8CC[C@@H]7c7ccccc7)cc6)CC5)C3)CC2)O4)C(=O)N1 (stereo partly drawn) [PROTAC 57, 3-(1-(7-(4-((1R,2S)-6-hydroxy-2-phenyl-1,2,3,4-tetrahydronaphthalen-1-yl)phenyl)-7-nitrogenheterospiro[3.5]non-2-yl)-6′-oxo-3′,4′,6′,8′-tetrahydro-7′H-spiro[piperidin-4,2′-pyrano [2,3-f]isoindole]-7′-yl)piperidine-2,6-dione]			10	2
O=C1CCC(N2Cc3ccc4c(c3C2=O)OCC2(CCN(C3CCC5(CC3)CCN(c3ccc([C@@H]6c7ccc(O)cc7CC[C@@H]6c6ccccc6)cc3)CC5)CC2)C4)C(=O)N1 (stereo partly drawn) [PROTAC 59, 3-(1-(3-(4-((1R,2S)-6-hydroxy-2-phenyl-1,2,3,4-tetrahydronaphthalen-1-yl)phenyl)-3-azaspiro[5.5]undec-9-yl)-9′-oxo-7′,9′-dihydro-2′H-spiro[piperidin-4,3′-pyrano[2,3-f]isoindole]-8′(4′H)-yl)piperidine-2,6-dione]			130	5.2

Second part, the molecule after the results:

IC50 (HeLa cells) [µM]	IC50 (A549 cells) [µM]	IC50 (MCF-7 cells) [nM]	IC50 (T-47D cells) [nM]	Compound
		30	9.2	O=C1CCC(N2Cc3cc4c(cc3C2=O)CCC2(CN(C3CCC5(CC3)CCN(c3ccc([C@@H]6c7ccc(O)cc7CC[C@@H]6c6ccccc6)cc3)CC5)C2)O4)C(=O)N1 (stereo partly drawn) [PROTAC 52, 3-(1-(3-(4-((1R,2S)-6-hydroxy-2-phenyl-1,2,3,4-tetrahydronaphthalen-1-yl)phenyl)-3-azaspiro [5.5]undec-9-yl)-6′-oxo-3′,4′,6′,8′-tetrahydro-7′H-spiro[azetidine-3,2′-pyrano[2,3]isoindol]-7′-yl)piperidine-2,6-dione]
		90	2.9	O=C1CCC(N2Cc3cc4c(cc3C2=O)OC2(CC4)CN(C3CCC4(CC3)CN(c3ccc([C@@H]5c6ccc(O)cc6CC[C@@H]5c5ccccc5)cc3)C4)C2)C(=O)N1 (stereo partly drawn) [PROTAC 53, 3-(1-(2-(4-((1R,2S)-6-hydroxy-2-phenyl-1,2,3,4-tetrahydronaphthalen-1-yl)phenyl)-2-azaspiro [3.5]non-7-yl)-8′-oxo-3′,4′,6′,8′-tetrahydro-7′H-spiro[azetidine-3,2′-pyrano[2,3]isoindol]-7′-yl]piperidine-2,6-dione]
		40	6.6	O=C1CCC(N2Cc3cc4c(cc3C2=O)CCC2(CN(C3CCC5(CC3)CN(c3ccc([C@@H]6c7ccc(O)cc7CC[C@@H]6c6ccccc6)cc3)C5)C2)O4)C(=O)N1 (stereo partly drawn) [PROTAC 55, 3-(1-(2-(4-((1R,2S)-6-hydroxy-2-phenyl-1,2,3,4-tetrahydronaphthalen-1-yl)phenyl)-2-azaspiro [3.5]non-7-yl)-6′-oxo-3′,4′,6′,8′-tetrahydro-7′H-spiro[azetidine-3,2′-pyrano[2,3-f]isoindol]-7′-yl)piperidine-2,6-dione]
		20	1	O=C1CCC(N2Cc3cc4c(cc3C2=O)OCC2(CCN(C3CC5(CCN(c6ccc([C@@H]7c8ccc(O)cc8CC[C@@H]7c7ccccc7)cc6)CC5)C3)CC2)O4)C(=O)N1 (stereo partly drawn) [PROTAC 58, 3-(1-(7-(4-((1R,2S)-6-hydroxy-2-phenyl-1,2,3,4-tetrahydronaphthalen-1-yl)phenyl)-7-azaspiro [3.5]non-2-yl)-6′-oxo-6′,8′-dihydro-3′H,7′H-spiro[piperidine-4,2′-[1,4]dioxino[2,3-f]isoindol]-7′-yl)piperidine-2,6-dione]
